From patent publication US8791128B2, “Compositions for treating or delaying the onset of hair loss” (University of Central Florida Research Foundation, Inc., priority 2008, dated 2014)
Entries after “also recorded” stand apart in the source; their conditions may differ.

Assays:
[1] = test system: rodent cortical neurons; conditions: cited from earlier work
[2] = test system: BrdU positive cells of the epidermis; test: Topical application study: BrdU immunohistochemistry of epidermis; type: in vivo, C57 BL/6 mice
Experimental: (§1) Based on the inventors' realizations, the decision was made to test NBI-18 in a topical application study to induce the genesis or re-growth of hair. Varying doses of NBI-18 [0.75 mg/ml, 1.5 mg/ml, 3.0 mg/ml, and control (50% ETOH)] was delivered in 5 ul drops to shaved locations on the back of C57 BL/6 mice. The varying doses were given 5 consecutive days and on day 4 and 5 BrdU (100 mg/kg, ip) was injected. […] NBI-18 has proven to produce a desired affect in rodent models that show a predominant re-growth of hair using the topical application of the small molecular pyrimidine compound known as NBI-18. We are hypothesizing that NBI-18 treatment will lead to greater cytogenesis and eventually lead to a commercial product that will eradicate hair loss. These studies will be further described in the Examples provided below.
In this study, the inventors determined a dose range where keratinogenesis occurs in healthy mice to help us learn about the fate of newly formed cells within the epidermis. […] In order for us to eliminate unnecessary anesthesia, our vehicle of delivery was 50% Ethanol (ETOH). NBI-18 was suspended in 50% ETOH using the concentrations of 0.75 mg/ml, 1.5 mg/ml, 3.0 mg/ml, and control (50% ETOH) respectively.
A. Two C57 BL/6 mice were selected for the topical application study of NBI-18. The mice were prepped by shaving four specific locations lateral/dorsal in a circular pattern. NBI-18 was delivered to the specified areas (right, counterclockwise from lowest to highest dose, then control) in concentrations of 1.5 mg/ml, 3.0 mg/ml, 6.0 mg/ml and control (50% ETOH) respectively. The solutions were applied to the center of these locations in a 5 ul dose for 5 consecutive days and on days 4 and 5 BrdU (100 mg/K, ip) was injected. On day 7 the mice were euthanized using a high dose pentobarbital (70 mg/kg, ip) and the treated epidermis was dissected and placed into 4% paraformaldehyde fixative for 48 hour
Immunohistochemistry of epidermis. Epidermal sections were mounted into square embedding molds with freezing medium (O.C.T. compound, Tissue Tek), sliced in 20 uM sections then mounted onto adhesive coated slides (Instrumedics, Inc) via tape transfer method. Slides were washed with PBS then placed in 2NHCL for 30 minutes to […]. Slides were then washed again with PBS, then blocked using 3% Donkey serum in PBST for 1 hour. Primary anti-body suspended in blocking solution used was anti-BrdU (sigma) at 1:1000 overnight in 4C. Slide were washed 3× then placed in secondary anti-body suspended in blocking solution, FITC (Jackson ImmunoResearch) at 1:500 for 2 hours at room temperature then washed with PBS. Slides were mounted using Vectashield with Dapi. […]

[3] = Toxicity study (i.p., 7 days; rotarod, open field, postural reflex, forelimb placing); type: in vivo, C57 BL/6 mice; conditions: 100, 300, 1000 mg/kg/day i.p. for 7 days
Experimental: A total of 16 male C57 BL/6 mice (12 weeks old) weighing 25-30 g were used to investigate the toxicity of NBI-18. The mice were maintained on a 12-h light/dark cycle, and had free access to food and water through the study period. These animals were housed four per cage. In this study, animals were divided into four groups (four/group). Acute toxicity has been tested up to 1000 mg/kg. NBI-18 (0, 100, 300,1000 mg/kg/day, i.p.) was injected for 7 days and for the control group, the same volume of vehicle saline was injected. Bromodeoxyuridine (BrdU)(Sigma Chemical Co., St Louis, Mo.), was injected (100 mg/kg/day, i.p.) for the last three days (days 5-7). For behavioral testing, rotarod and open field tests were used to examine balance and coordination of mice before, during and after NBI-18 injection. Also, postural reflex and forelimb placing tests were performed to evaluate the neurological functions for the animals. All the animals were anesthetized with pentobarbital (i.p.) 48 h after the last BrdU injection and immediately per fused with 4% paraformaldehyde fixative. The brains were immediately dissected, post fixed for 24 h and processed for immunohistochemistry.

[4] = test system: hair re-growth; test: Topical application study: hair re-growth on shaved skin; type: in vivo, C57 BL/6 mice; conditions: topical 0.75, 1.5, 3.0 mg/ml, 5 consecutive days
Experimental: as §1
B. Four C57 BL/6 mice were selected for the topical application study of NBI-18. The mice were prepped by shaving four specific locations lateral/dorsal in a circular pattern. NBI-18 was delivered to the specified areas (right, counterclockwise from lowest to highest dose, then control) in concentrations of 0.75 mg/ml, 1.5 mg/ml, and 3.0 mg/ml, and control (50% ETOH) respectively. The solutions were applied to the center of these locations in a 5 ul dose for 5 consecutive days and on days 4 and 5 BrdU (100 mg/K, ip) was injected. […]

[5] = test system: cells in the brain of rodents; test: NBI-18 injections: cell proliferation and neurogenesis in rodent brain; type: in vivo
[6] = test system: human NSCs; test: Proliferation of human NSCs in culture; type: cell-based
[7] = Extraction of NBI-18 from epidermis of treated mice; type: in vivo; conditions: 24 hours post-injection
Excerpt: (§2) U.S. Pat. Nos. 4,959,368; 5,976,523. One derivative of interest is heterocyclic pyrimidine molecule referred to herein as ‘NBI-18’ (2-piperadino-6-methyl-5-oxo-5,6-dihydro-(7H) pyrrolo-[3,4-d]pyrimidine maleate; Mwt. 349.54). […] U.S. Patent Pub 20030139410. The mechanism of action of NBI-18 is not known, although some evidence implies the activation of the MAPK (mitogen activated protein kinase) pathway, a cascade that is also activated by peptide growth factors. […] NBI-18 has been tested in isolated animal models—axon growth in mice and muscle regeneration in rats—with no evidence of mechanistic details relating to function. Mechanism of action studies to find the drug target, are planned as part of our ongoing research. Upon learning about the availability of NBI-18 family of molecules, it was hypothesized that the compounds may be involved in the proliferation process of Stem Cells and the inventors decided to examine the possible implication for genesis of Keratinocyte Stem Cells (KSCs) or possibly the human bulge cells which provide the niche for KSCs, in animal models.

[8] = Absorption and half-life in rodents (HPLC analysis); type: in vivo, rat
Excerpt: as §2

[9] = Ames test by a third party; conditions: third party company
Excerpt: as §2

[10] = daily injections for five days, rodents

## CN1Cc2nc(N3CCCCC3)ncc2C1=O.O=C(O)/C=C\C(=O)O [NBI-18, 2-piperadino-6-methyl-5-oxo-5,6-dihydro-(7H) pyrrolo-[3,4-d]pyrimidine maleate]
[1]; TUNEL assays
  rate of apoptosis: reducing the rate of apoptosis
[1]; bFGF, nerve growth factor, EGF, insulin-like growth factor
  activity in neuron culture: active primarily in the presence of various growth factors
[1]
  survival of rodent cortical neurons: promoted the survival
[2]; Example 3A, topical 1.5, 3.0, 6.0 mg/ml, 5 ul, 5 days, FIG. 1
  newly developed (BrdU) cells versus control: mass increases of newly developed cells
[2]; Example 3A, topical 1.5, 3.0, 6.0 mg/ml, FIG. 1
  migration pattern of new cells: alignment towards migration patterns
[2]; topical 0.75, 1.5, 3.0 mg/ml in 50% ETOH
  dose dependence of the elevation in BrdU positive stained cells: did not demonstrate a dose dependent increase
[2]; topical 0.75, 1.5, 3.0 mg/ml in 50% ETOH, 5 ul, 5 consecutive days
  BrdU positive (proliferating) cells in comparison to control: abundant increase in proliferating cells; also recorded: vast increase; also recorded: dramatic elevation; also recorded: some varying levels of increase; also recorded: increases the number of BrdU positive cells
[3]
  behavioral or neurological changes: no immediate behavioral or neurological changes
  symptoms of toxicity: no symptoms of toxicity
[4]
  time to re-growth of hair near to its original length: ≤ 7 days
[4]; 5 ul, shaved skin
  hair re-growth in treated areas compared to control areas: visibly complete hair growth; also recorded: visible re-growth of hair; also recorded: actual hair re-growth
[5]; animal studies
  dose dependence of the increase in proliferation: dose dependent
[5]; daily injections for five days, at four weeks, young and aged rodents
  neurogenesis: stable neurogenesis
[5]; [10]
  pathological effects: no discernible pathological effects
  symptoms of toxicity: no symptoms of toxicity
[5]; injections 5 mg/kg, rodents
  proliferation of cells in the brain: increased proliferation
[6]
  proliferation of human NSCs: stimulate the proliferation
[7]
  presence in epidermis: can be extracted
[8]; after intraperitoneal as well as oral administration, rodent studies
  absorption: absorbed well
[8]; general statement
  oral bioavailability: orally bioavailability
[8]; rat circulation, HPLC analysis
  t1/2: > 4 h
[9]
  mutagenicity: not mutagenic; also recorded: no mutagenesis or toxicity
